Results on 22 compounds are retold here after ChEMBL document CHEMBL3399989, “PTP1B inhibitors from stems of Angelica keiskei (Ashitaba)” (Bioorg Med Chem Lett, 2015).

Activity calls are given as the source filed them. The rule behind the calls is not given here.

Test [1] deals with T1, Tyrosine-protein phosphatase non-receptor type 1 (Homo sapiens) (UniProt P18031).
T1 sequence (whole entry): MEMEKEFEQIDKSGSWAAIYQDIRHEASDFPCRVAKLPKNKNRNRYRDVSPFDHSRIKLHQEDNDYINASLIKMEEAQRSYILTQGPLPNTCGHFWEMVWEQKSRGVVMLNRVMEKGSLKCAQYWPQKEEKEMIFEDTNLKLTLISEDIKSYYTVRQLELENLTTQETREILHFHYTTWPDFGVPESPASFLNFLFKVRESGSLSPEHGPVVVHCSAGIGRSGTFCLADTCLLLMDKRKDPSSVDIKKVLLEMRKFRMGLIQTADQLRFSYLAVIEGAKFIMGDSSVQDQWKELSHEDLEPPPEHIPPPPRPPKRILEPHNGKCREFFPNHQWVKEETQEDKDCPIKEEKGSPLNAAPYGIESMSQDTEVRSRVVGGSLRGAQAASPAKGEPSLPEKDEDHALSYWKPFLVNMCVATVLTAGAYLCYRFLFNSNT
The experiment in a line: Inhibition of PTP1B (unknown origin) at 20 ug/ml using pNPP substrate measured after 3 mins by colorimetric assay.

Test [2] concerns the target T2, Tyrosine-protein phosphatase non-receptor type 1 (Homo sapiens, UniProt P18031).
T2 sequence (P18031 whole entry): T1 sequence (whole entry)
Briefly: Inhibition of PTP1B (unknown origin) using pNPP substrate measured after 3 mins by colorimetric assay.

Test [3] has as its target T1, Tyrosine-protein phosphatase non-receptor type 1 (Homo sapiens). Briefly: Fast-binding inhibition of PTP1B (unknown origin) using pNPP substrate by colorimetric method based enzyme kinetics assay.
Test [4] shares this target. The experiment in a line: Inhibition of PTP1B (unknown origin) using pNPP substrate by colorimetric method based enzyme kinetics assay. The conditions noted are these: TDE = time-dependent effect.
Test [5] shares this target. Briefly: Competitive inhibition of PTP1B (unknown origin) assessed as unchanged Vmax level at 1.5 to 6 uM using pNPP substrate by colorimetric method based Lineweaver-Burk plot method.
For test [6] the target is unchanged. The experiment in a line: Competitive inhibition of PTP1B (unknown origin) assessed as increase in substrate Km at 1.5 to 6 uM using pNPP substrate by colorimetric method based Lineweaver-Burk plot method.

As usually defined, the inhibition is the change of the read-out against control, counted positive when it falls. Turning to `O=c1c(O[C@@H]2O[C@H](CO)[C@H](O)[C@H](O)[C@H]2O)c(-c2ccc(O)c(O)c2)oc2cc(O)cc(O)c12`, the inhibition in test [1] is less than 50%. Regarding `COc1ccc(C(=O)/C=C/c2ccc(O)cc2)c2c1[C@H](OC)[C@H](O)C(C)(C)O2`, the inhibition in test [1] was less than 50%. The same measure, in the same setting: in the case of `O=c1c(O[C@@H]2OC[C@H](O)[C@H](O)[C@H]2O)c(-c2ccc(O)c(O)c2)oc2cc(O)cc(O)c12` it was less than 50%. The term IC50 denotes the concentration needed to halve the response being measured. The low end stands for higher potency, the high end for lower potency. Compound `C[C@@H]1O[C@@H](Oc2c(-c3ccc(O)c(O)c3)oc3cc(O)cc(O)c3c2=O)[C@H](O)[C@H](O)[C@H]1O` [QUERCITRIN] showed a concentration for half-maximal inhibition (IC50) in test [2] of 39 µM. The compound further returned an inhibition in test [1] of 64.4%. `CC1(C)Oc2ccc3ccc(=O)oc3c2[C@@H](O)[C@H]1O` (relative stereo): inhibition in test [2] was half-maximal at 39.7 µM (IC50). This compound also showed an inhibition in test [1] of 92.3%. For the compound `COc1ccc(C(=O)/C=C/c2ccc(O)cc2)c2c1[C@H](O)[C@H](O)C(C)(C)O2`, the inhibition in test [1] is less than 50%. In test [1], `C/C=C(/C)C(=O)O[C@H]1c2c(ccc3ccc(=O)oc23)OC(C)(C)[C@H]1O` returned an inhibition of less than 50%.

On to `C/C=C(/C)C(=O)O[C@@H]1Cc2c(ccc3ccc(=O)oc23)OC1(C)C` [JATAMANSIN], for which the 50% inhibitory concentration (IC50) in test [2] was 35.2 µM. Further, the inhibition in test [1] came to 93.5%.

Compound `O=c1cc(-c2ccc(O)c(O)c2)oc2cc(O[C@@H]3O[C@H](CO)[C@@H](O)[C@H](O)[C@H]3O)cc(O)c12` yielded an inhibition in test [1] of less than 50%.

Take `C=C(C)C(=O)Cc1c(OC)ccc(C(=O)/C=C/c2ccc(O)cc2)c1O`: the inhibition result in test [3], in test [5] and in test [6] was “Active” in each case. In test [2], half-maximal inhibition (IC50) required 2.33 µM. Further, the inhibition in test [1] is 85.2%; in test [4] it was “tde”.

For the compound `COc1c2occc2cc2ccc(=O)oc12`, the inhibition in test [1] is less than 50%.

Compound `CC(C)=CCC/C(C)=C/Cc1c(O)ccc(C(=O)/C=C/c2ccc(O)cc2)c1O` [XANTHOANGELOL] showed an IC50 in test [2] of 5.02 µM. Besides, in test [1], the inhibition amounted to 79.8%. The corresponding values for `COc1ccc(C(=O)/C=C/c2ccc(O)cc2)c(O)c1C/C=C(\C)CCC=C(C)C` [XANTHOANGELOL F] are 4.11 µM and 96.8%. In turn, `COc1ccc(C(=O)/C=C/c2ccc(O)cc2)c2c1C(O)C(C(C)(C)O)O2` (centres undefined) gave an inhibition in test [1] of less than 50%. The compound `CCOC1c2c(OC)ccc(C(=O)/C=C/c3ccc(O)cc3)c2OC1C(C)(C)O` (centres undefined) showed an IC50 in test [2] of 11.1 µM. In addition, in test [1], the inhibition turned out to be 91.9%.

In test [2], `COc1ccc(C(=O)/C=C/c2ccc(O)cc2)c(O)c1CC=C(C)C` showed an IC50 of 7.3 µM. Moreover, the inhibition in test [1] is 86%.

In the case of `C=C(C)C(Cc1c(OC)ccc(C(=O)/C=C/c2ccc(O)cc2)c1O)OO` (centres undefined), half-maximal inhibition in test [2] (IC50) was put at 3.86 µM. This compound came in with an inhibition in test [1] of 99.4%. Turning to `CC(C)C(=O)O[C@H]1Cc2c(ccc3ccc(=O)oc23)OC1(C)C`, the IC50 in test [2] is 30.3 µM. The inhibition in test [1] worked out at 93.7%.

In test [1], `C/C=C(/C)C(=O)O[C@H]1[C@@H](O)c2c(ccc3ccc(=O)oc23)OC1(C)C` showed an inhibition of less than 50%. Compound `COc1c2ccoc2cc2oc(=O)ccc12` [BERGAPTEN] had an IC50 in test [2] of 11.7 µM. This compound also came in with an inhibition in test [1] of 98.4%. In test [2], `C=C(C)C(O)Cc1c(OC)ccc(C(=O)/C=C/c2ccc(O)cc2)c1O` (centres undefined) [XANTHOANGELOL D] showed a concentration for half-maximal inhibition (IC50) of 11.2 µM. The inhibition in test [1] was determined as 96.8%. `C=C[C@@H](O)C#CC#C[C@@H](O)/C=C\CCCCCCC` [FALCARINDIOL]: in test [2], the 50% inhibitory concentration (IC50) was 31.6 µM. Also, the inhibition in test [1] amounted to 97.8%.
